SMILES strings stand for the structures.

Turning to `C[C@@H]1CN(Cc2ccc(F)cc2)CCN1C(=O)/C=C/c1ccc(Cl)cc1NC(=O)N1CCNC1=O` [Example 11, 2-Oxo-imidazolidine-1-carboxylic acid (5-Chloro-2-[(E)-3-[(R)-4-(4-fluoro-benzyl)-2-methyl-piperazin-1-yl]-3-oxo-propenyl]-phenyl)-amide], the melting point (as a rule, the temperature, or range, at which the solid turns liquid) lay in the range of 275 to 277 °C.

The values above are taken from patent US7645760B2, “1-(4-Benzyl-piperazin-1-yl)-3-phenyl-propenone derivatives” (Novartis AG., priority 2002, dated 2010).
